In patent publication US20140127231A1, “p38 MAPK Pathway Inhibitors as Female-Specific Therapeutics” (UNIVERSITY OF VERMONT, priority 2012, published 2014):
Entries after “also recorded” stand apart in the source; their conditions may differ.

System: experimental autoimmune encephalomyelitis (EAE)
Test: Active EAE, 2×MOG35-55/CFA protocol, clinical course (Example 3)
Assay type: in vivo, C57BL/6J (B6) mice
Settings: 5 mg/kg/day i.p. daily from day of immunization; for EAE disease course: 5 mg/kg/day
Method: Female (FIG. 15A) and male (FIG. 15B) B6 mice were immunized using the 2×MOG35-55/CFA protocol, followed by daily injections of SB203580 or carrier. Data represent 2 independent experiments, pooled. Data were analyzed as indicated in Materials and Methods. […] For individual time points, * ≦0.05; ** ≦0.01, *** ≦0.001, **** ≦0.0001. Numbers in parentheses indicate the total number of animals studied.
EAE was induced essentially as described previously (Noubade R, et al., J Clin Invest. 2007 November; 117(11):3507-18). Briefly, mice were injected s.c. with an emulsion containing 100 μg of MOG35-55 peptide ([…]; SEQ ID NO: 1) (Anaspec, USA) and complete Freund's adjuvant (CFA) (Sigma-Aldrich, St. Louis, Mo.) supplemented with 200 μg of Mycobacterium tuberculosis H37Ra (Difco Laboratories, Detroit, Mich.) in the posterior right and left flanks. One week later all mice were similarly injected at two sites on the right and left flank anterior of the initial injection sites (2×MOG35-55/CFA). Alternatively, mice were immunized with 200 μg of MOG35-55 in CFA, followed by i.v. administration of 200 ng pertussis toxin (List Biological) (1×MOG35-55/CFA/PTX). In some experiments (as indicated), mice received 5 mg/kg/day of SB203580 dihydrochloride (Tocris, Ellisville, Mo.) by i.p. injection in a total volume of 200 μl or an equal volume of carrier daily starting on the day of immunization. Mice were scored daily starting at day 10 post-injection as previously described (Noubade R, et al., J Clin Invest. 2007 November; 117(11):3507-18). Passive EAE was induced as follows. […]
All statistical analyses were performed using GraphPad Prism 6 software (GraphPad Software Inc, San Diego, Calif.). The significance of differences in cytokine production and flow cytometry data were determined using 2-way ANOVA. The significance of differences observed in clinical course of EAE was determined by 2-way ANOVA and post-hoc analysis using Fisher's LSD test for individual time points (significance indicated by “*” above each time point). […] EAE data from replicate experiments were analyzed by heterogeneity testing. […]

C[S+]([O-])c1ccc(-c2nc(-c3ccncc3)c(-c3ccc(F)cc3)[nH]2)cc1 (stereo not drawn) [SB203580]
EAE disease course (female B6 mice): robustly ameliorated; also recorded: significant difference in EAE course | EAE onset (male B6 mice): accelerated | EAE disease course (male B6 mice): showed no therapeutic efficacy; also recorded: augmented; also recorded: did not reduce EAE
